From US10920265B2, “Compounds and methods for detection of enzymes that remove methyl succinyl groups from epsilon-amino lysine moieties” (Enzo Life Sciences, Inc., priority 2011, dated 2021)
*: point of attachment. AMC = Cc1cc(=O)oc2cc(N*)ccc12

Molecular target: T1, SIRT5 (Homo sapiens, UniProt Q9NXA8)
T1 sequence (Q9NXA8 37-310): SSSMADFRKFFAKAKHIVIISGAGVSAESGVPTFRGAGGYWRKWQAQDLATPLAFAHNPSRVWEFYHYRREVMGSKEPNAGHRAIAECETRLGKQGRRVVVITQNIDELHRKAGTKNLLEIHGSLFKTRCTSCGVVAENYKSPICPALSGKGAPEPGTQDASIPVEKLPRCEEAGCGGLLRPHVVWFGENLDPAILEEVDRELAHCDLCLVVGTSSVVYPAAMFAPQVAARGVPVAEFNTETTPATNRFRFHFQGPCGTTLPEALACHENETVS
Experiment: SIRT5 desuccinylation/deacetylation of fluorogenic lysyl substrates, trypsin developer
Type: biochemical
Design: purchased Enzo Life Sciences BML-SE555
Conditions: for Dependence of SIRT5 initial rate on substrate concentration: 20 min. at 37° C.
Procedure: FIG. 3 is graphs showing that SIRT5 catalyzes NAD^+-dependent desuccinylation of Ac-Lys(ε-succinyl)-AMC far more efficiently than NAD^+-dependent deacetylation of Ac-Arg-His-Lys-Lys(ε-acetyl)-AMC. Fifty μl reactions in Assay Buffer (50 mM Tris/HCl, pH 8.0, 137 mM NaCl, 2.7 mM KCl, 1 mM MgCl2, 1 mg/ml BSA) included 50 μM of either Ac-Lys(ε-succinyl)-AMC or Ac-Arg-His-Lys-Lys(ε-acetyl)-AMC, and, where indicated, 500 μM NAD^+ and 5 μg recombinant human SIRT5 (Enzo Life Sciences Cat. # BML-SE555). […] AMC fluorescence was read in a Cytofluor II plate-reading fluorimeter (Perseptive Biosystems) at wavelengths 360 nm (excitation)/460 nm (emission), Gain 54. Data represent the mean of two (No Enzyme) or three (+SIRT5) determinations and error bars the standard deviations. Panels A and B present the same data, but with the +SIRT5/+NAD^+/Ac-Lys(ε-succinyl)-AMC bar omitted from B to show the detail on the remaining bars. Statistically significant differences (Student's t-test) are indicated by asterisks as follows: *: p<0.02 vs. corresponding No Enzyme control; **: p<0.001 vs. corresponding −NAD^+ control; ***: p<3×10^−6 vs. both No Enzyme and −NAD^+ controls.
FIG. 4 is a graph showing that Ac-Lys(Succ.)-AMC enables SIRT5 assay at low enzyme concentrations. Fifty μl reactions in Assay Buffer (50 mM Tris/HCl, pH 8.0, 137 mM NaCl, 2.7 mM KCl, 1 mM MgCl2, 1 mg/ml BSA) included 2 or 10 μM Ac-Lys(ε-succinyl)-AMC, 500 μM NAD^+ and, where indicated, 5 ng recombinant human SIRT5 (Enzo Life Sciences Cat. # BML-SE555). […] AMC fluorescence was read in a Synergy 2 plate-reading fluorimeter (BioTek) at wavelengths 360 nm (excitation)/460 nm (emission), Gain 40. Data represent the mean of two (No Enzyme) or three (5 ng SIRT5) determinations and error bars the standard deviations. Statistically significant differences (Student's t-test) are indicated by asterisks as follows: *: p=0.002; **: p=0.009, each with respect to the corresponding “No SIRT5” samples.
FIG. 5 is graphs showing dependence of SIRT5 initial rate kinetics on the concentrations of Ac-Lys(Succ.)-AMC and Ac-Lys(Ac.)-AMC. Fifty μl desuccinylation or deacetylation reactions were performed as described earlier (FIG. 4), with the indicated concentrations of Ac-Lys(Succ.)-AMC or Ac-Lys(Ac.)-AMC and 1 mM NAD^+, for 20 min. at 37° C. Reactions with Ac-Lys(Succ.)-AMC contained 10 ng SIRT5 and those with Ac-Lys(Ac.)-AMC contained 5 SIRT5. Reactions were stopped and AMC cleaved from deacetylated or desuccinylated substrate by trypsin treatment as described earlier (FIG. 4). AMC fluorescence was read in a Synergy 2 plate-reading fluorimeter (BioTek) at wavelengths 360 nm (excitation)/460 nm (emission), Gain 40. Data represent the mean of the differences of three determinations with enzyme (10 ng or 5 SIRT5) from the mean of two no enzyme samples for each substrate concentration. Error bars are the standard deviations from those means. Fluorescence differences were converted to specific activities (pmol/min/μg) by measuring the fluorescence increase due to the addition a standard solution of AMC (5 μl of a […]).
FIG. 6 is a graph showing the dependence of SIRT5 initial rate kinetics of Ac-Lys(Succ.)-AMC desuccinylation on the concentration of NAD^+. Reaction conditions were as described for FIG. 5 but with a constant Ac-Lys(Succ.)-AMC concentration of 0.5 mM and the indicated concentrations of NAD^+. Data analysis and determination of kinetic parameters were as described (FIG. 5).
FIG. 12 is graphs showing that SIRT5 catalyzes NAD^+-dependent desuccinylation of (Ac-Lys(Succ.))2-R110 far more efficiently than NAD^+-dependent deacetylation of (Ac-Lys(Ac.))2-R110. Fifty μl reactions in Assay Buffer (50 mM Tris/HCl, pH 8.0, 137 mM NaCl, 2.7 mM KCl, 1 mM MgCl2, 1 mg/ml BSA) included 50 μM of either (Ac-Lys(Succ.))2-R110 or (Ac-Lys(Ac.))2-R110, and, where indicated, 500 μM NAD^+ and 5 μg recombinant human SIRT5 (Enzo Life Sciences Cat. # BML-SE555). […]

[1] = SIRT5, 50 μM substrate, 500 μM NAD^+

Row | Activity [1] | Activity (pmol/min/μg) [1] | Fraction of substrate desuccinylated (5 μg SIRT5 (3 μM in 50 μl), 50 μM substrate, 60 min.) | Desuccinylation relative to deacetylation of Ac-Arg-His-Lys-Lys(ε-acetyl)-AMC (5 μg SIRT5 per 50 μl, 50 μM substrate, 500 μM NAD^+, 60 min.) | kcat (varied substrate: Lysyl, 1 mM NAD^+) | kcat (varied substrate: NAD^+, constant 0.5 mM Ac-Lys(Succ.)-AMC) | Compound | Dependence of SIRT5 initial rate on substrate concentration (1 mM NAD^+) | SIRT5/NAD^+ dependence of desuccinylation (5 μg SIRT5, 50 μM substrate, 500 μM NAD^+, 60 min.)
1 | 0.0174 pmol/min/µg |  |  |  |  |  | CC(=O)NCCCCC(NC(C)=O)C(=O)Nc1ccc2c(C)cc(=O)oc2c1 (stereo not shown) [Ac-Lys(Ac.)-AMC, Ac-Lys(ε-acetyl)-AMC, reference compound] | remains linear over the concentration range of the assay | 
2 |  | Ac-RHKK(Ac)-AMC/0.364 pmol/min/μg |  |  |  |  | Ac-Arg-His-Lys-Lys(ε-acetyl)-AMC (Ac-RHKK(Ac)-{AMC}; SMILES CC(=O)NCCCC[C@H](NC(=O)[C@H](CCCCN)NC(=O)[C@H](Cc1c[nH]cn1)NC(=O)[C@H](CCCNC(=N)N)NC(C)=O)C(=O)Nc1ccc2c(C)cc(=O)oc2c1) [Ac-RHKK(Ac)-AMC, p53 peptide fluorogenic deacetylase substrate, Cat. # BML-KI177, reference compound] |  | 
3 | 115 pmol/min/µg |  | ~50% | at least 250 fold | 0.26 s⁻¹ | 0.29 s⁻¹ | CC(=O)N[C@@H](CCCCNC(=O)CCC(=O)O)C(=O)Nc1ccc2c(C)cc(=O)oc2c1 [Compound 1, N—(N^α-acetyl-L-Lysine(N^ε-succinyl))-AMC] | displays saturation kinetics | entirely dependent on the presence of SIRT5 and NAD^+
